In ChEMBL document CHEMBL1150056, “5-Epi-isospongiaquinone, a new sesquiterpene/quinone antibiotic from an Australian marine sponge, Spongia hispida” (1992):

Assays:
[1] = test system: Micrococcus sp.; assay: Antibacterial activity against Micrococcus sp. assessed per disk; assay type: functional
[2] = test system: Staphylococcus aureus; assay: Antibacterial activity against Staphylococcus aureus assessed per disk; assay type: functional

| Structure (SMILES) | MIC [1] [µg] | MIC [2] [µg] |
| --- | --- | --- |
| COC1=CC(=O)C(O)=C(C[C@]2(C)[C@@H](C)CC[C@@]3(C)C(C)=CCC[C@@H]23)C1=O | 20 | 20 |
| CCOC1=CC(=O)C(O)=C(C[C@]2(C)[C@@H](C)CC[C@@]3(C)C(C)=CCC[C@@H]23)C1=O | 50 | 50 |
